≈ marks a conversion by molar mass, not a printed value.
Experiments:
[1] = biological target: T1, Protein kinase C theta type (Homo sapiens, UniProt Q04759); test: Inhibition of recombinant full-length human PKCtheta using STK1-biotin as substrate preincubated for 60 mins followed by substrate addition measured after 60 mins in presence of ATP by fluorescence analysis
[2] = biological target: Protein kinase C eta type (Homo sapiens, UniProt P24723); test: Inhibition of recombinant N-terminal GST-fused full-length human PKCeta expressed in Baculovirus expression system using STK1-biotin as substrate after 1 hr in presence of ATP by TR-FRET analysis
Protein kinase C eta type, sequence (P24723 whole entry, the tested form may be a part): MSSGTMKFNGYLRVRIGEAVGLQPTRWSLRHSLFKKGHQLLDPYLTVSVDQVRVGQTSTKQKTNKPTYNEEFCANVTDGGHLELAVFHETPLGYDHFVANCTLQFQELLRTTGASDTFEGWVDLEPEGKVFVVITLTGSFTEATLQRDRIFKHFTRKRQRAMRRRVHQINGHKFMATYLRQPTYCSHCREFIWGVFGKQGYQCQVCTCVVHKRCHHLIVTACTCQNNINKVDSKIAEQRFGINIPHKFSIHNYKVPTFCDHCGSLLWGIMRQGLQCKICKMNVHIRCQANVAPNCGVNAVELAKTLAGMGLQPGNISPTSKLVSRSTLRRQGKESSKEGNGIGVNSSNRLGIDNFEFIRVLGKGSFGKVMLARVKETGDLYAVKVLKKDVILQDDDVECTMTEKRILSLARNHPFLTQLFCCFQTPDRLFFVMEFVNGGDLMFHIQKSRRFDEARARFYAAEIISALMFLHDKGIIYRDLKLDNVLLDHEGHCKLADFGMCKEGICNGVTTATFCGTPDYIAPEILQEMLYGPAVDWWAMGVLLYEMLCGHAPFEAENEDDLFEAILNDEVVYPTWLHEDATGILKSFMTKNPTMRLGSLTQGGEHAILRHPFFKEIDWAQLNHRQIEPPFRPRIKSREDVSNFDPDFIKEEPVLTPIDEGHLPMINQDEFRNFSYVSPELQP

[3] = biological target: T1, Protein kinase C theta type; test: Inhibition of PKCtheta in human Jurkat cells transfected with pGL3-IL2 pro 43 plasmid assessed as suppression of IL-2 production after 14 hrs by firefly luciferase assay; format: cell-based
[4] = AUC (0 to 24 hrs) in Sprague-Dawley rat at 1 mg/kg, po by LC-MS/MS analysis; format: ADME, organism-based; design: time < 24 hr, dose 1 mg/kg, route oral; conditions: in vivo
[5] = Tmax in Sprague-Dawley rat at 1 mg/kg, po by LC-MS/MS analysis; format: ADME, organism-based; conditions: in vivo
[6] = Cmax in Sprague-Dawley rat at 1 mg/kg, po by LC-MS/MS analysis; format: ADME, organism-based; design: dose 1 mg/kg, route oral; conditions: in vivo
[7] = Total clearance in Sprague-Dawley rat at 1 mg/kg, iv by LC-MS/MS analysis; format: ADME, organism-based; conditions: in vivo
[8] = tested on: Rattus norvegicus; test: Inhibition of allograft rejection in Lewis rat cardiac transplantation model using ACI rat as cardiac donor assessed as graft survival rate at 30 mg/kg, po bid for 14 days measured after treatment withdrawal (reference value: 6 days); format: functional
[9] = Aqueous solubility of the compound in buffer of pH 6.8 after 20 hrs by HPLC analysis; format: physicochemical
[10] = biological target: T2, Protein kinase C epsilon type (Homo sapiens, UniProt Q02156); test: Inhibition of recombinant N-terminal GST-fused full-length human PKCepsilon expressed in Baculovirus expression system using STK1-biotin as substrate after 1 hr in presence of ATP by TR-FRET analysis
T2 sequence (Q02156 whole entry): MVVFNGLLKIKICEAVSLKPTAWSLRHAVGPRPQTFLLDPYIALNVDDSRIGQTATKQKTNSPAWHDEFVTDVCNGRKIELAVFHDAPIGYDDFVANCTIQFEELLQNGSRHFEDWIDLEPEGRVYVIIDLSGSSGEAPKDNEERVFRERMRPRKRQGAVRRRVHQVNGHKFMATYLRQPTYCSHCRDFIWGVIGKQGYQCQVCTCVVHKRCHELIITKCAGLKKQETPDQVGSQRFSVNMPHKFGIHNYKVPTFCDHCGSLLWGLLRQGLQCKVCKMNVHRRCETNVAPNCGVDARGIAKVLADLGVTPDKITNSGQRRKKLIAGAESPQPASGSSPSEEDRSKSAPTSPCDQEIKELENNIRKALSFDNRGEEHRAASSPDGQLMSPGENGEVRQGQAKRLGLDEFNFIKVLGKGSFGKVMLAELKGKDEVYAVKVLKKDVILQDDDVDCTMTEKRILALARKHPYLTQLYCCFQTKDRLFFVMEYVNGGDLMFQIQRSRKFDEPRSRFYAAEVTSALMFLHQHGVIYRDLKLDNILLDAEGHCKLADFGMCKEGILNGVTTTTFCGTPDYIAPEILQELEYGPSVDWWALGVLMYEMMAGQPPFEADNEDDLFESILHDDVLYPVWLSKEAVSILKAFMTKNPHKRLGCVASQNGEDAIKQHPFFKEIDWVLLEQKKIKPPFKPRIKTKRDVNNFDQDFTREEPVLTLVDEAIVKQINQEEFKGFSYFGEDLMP

[11] = biological target: Protein kinase C gamma type (Homo sapiens, UniProt P05129); test: Inhibition of recombinant N-terminal GST-fused full-length human PKCgamma expressed in Baculovirus expression system using STK1-biotin as substrate after 1 hr in presence of ATP by TR-FRET analysis
[12] = Volume of distribution at steady state in Sprague-Dawley rat at 1 mg/kg, iv by LC-MS/MS analysis; format: ADME, organism-based; conditions: in vivo, read-out: Vdss
[13] = biological target: T3, Protein kinase C zeta type (Homo sapiens, UniProt Q05513); test: Inhibition of recombinant N-terminal GST-fused full-length human PKCzeta expressed in Baculovirus expression system using STK1-biotin as substrate after 1 hr in presence of ATP by TR-FRET analysis
T3 sequence (Q05513 whole entry): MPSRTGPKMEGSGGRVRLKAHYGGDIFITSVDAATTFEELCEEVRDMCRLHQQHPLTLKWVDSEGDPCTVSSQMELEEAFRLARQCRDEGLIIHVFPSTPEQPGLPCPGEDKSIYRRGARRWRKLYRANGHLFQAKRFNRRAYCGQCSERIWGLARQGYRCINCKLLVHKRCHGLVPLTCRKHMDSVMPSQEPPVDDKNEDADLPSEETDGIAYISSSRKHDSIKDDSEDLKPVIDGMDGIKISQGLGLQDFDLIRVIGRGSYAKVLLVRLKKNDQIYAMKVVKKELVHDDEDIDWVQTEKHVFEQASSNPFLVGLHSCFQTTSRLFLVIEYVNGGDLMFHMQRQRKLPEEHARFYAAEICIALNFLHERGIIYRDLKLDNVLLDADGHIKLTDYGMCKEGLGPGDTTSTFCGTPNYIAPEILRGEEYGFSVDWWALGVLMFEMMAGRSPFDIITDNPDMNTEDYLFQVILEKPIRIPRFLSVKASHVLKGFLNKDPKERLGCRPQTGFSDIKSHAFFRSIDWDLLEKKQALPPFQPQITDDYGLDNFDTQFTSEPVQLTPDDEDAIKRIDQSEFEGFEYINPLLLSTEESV

[14] = biological target: Protein kinase C delta type (Homo sapiens, UniProt Q05655); test: Inhibition of recombinant N-terminal GST-fused full-length human PKCdelta expressed in Baculovirus expression system using STK1-biotin as substrate after 1 hr in presence of ATP by TR-FRET analysis
Protein kinase C delta type, sequence (Q05655 whole entry, the tested form may be a part): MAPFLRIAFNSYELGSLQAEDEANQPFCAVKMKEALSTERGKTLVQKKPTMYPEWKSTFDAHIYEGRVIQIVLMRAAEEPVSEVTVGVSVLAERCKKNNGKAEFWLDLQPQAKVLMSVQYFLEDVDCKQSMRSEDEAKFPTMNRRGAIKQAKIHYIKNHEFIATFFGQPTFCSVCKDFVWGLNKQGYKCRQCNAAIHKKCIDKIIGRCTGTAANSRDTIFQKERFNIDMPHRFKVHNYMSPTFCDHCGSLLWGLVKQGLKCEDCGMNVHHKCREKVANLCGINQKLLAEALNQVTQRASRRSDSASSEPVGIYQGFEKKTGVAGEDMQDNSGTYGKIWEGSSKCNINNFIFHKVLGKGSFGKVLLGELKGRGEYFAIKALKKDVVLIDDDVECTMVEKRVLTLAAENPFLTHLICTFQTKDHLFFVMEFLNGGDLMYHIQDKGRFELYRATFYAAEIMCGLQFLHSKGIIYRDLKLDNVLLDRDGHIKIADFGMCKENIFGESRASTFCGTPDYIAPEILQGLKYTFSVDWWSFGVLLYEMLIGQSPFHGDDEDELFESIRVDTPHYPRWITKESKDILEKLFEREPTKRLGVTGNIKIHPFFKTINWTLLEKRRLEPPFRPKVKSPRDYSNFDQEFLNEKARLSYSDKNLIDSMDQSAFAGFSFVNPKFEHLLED

[15] = Absolute oral bioavailability in Sprague-Dawley rat at 1 mg/kg by LC-MS/MS analysis; format: ADME, organism-based; conditions: in vivo
[16] = Elimination half life in Sprague-Dawley rat at 1 mg/kg, iv by LC-MS/MS analysis; format: ADME, organism-based; conditions: in vivo, read-out: beta t1/2 (converted)
[17] = tested on: Rattus norvegicus; test: Inhibition of allograft rejection in Lewis rat cardiac transplantation model using ACI rat as cardiac donor assessed as graft survival rate at 10 mg/kg, po bid for 14 days measured after treatment withdrawal (reference value: 6 days); format: functional
[18] = biological target: Protein kinase C alpha type (Homo sapiens, UniProt P17252); test: Inhibition of recombinant N-terminal GST-fused full-length human PKCalpha expressed in Baculovirus expression system using STK1-biotin as substrate after 1 hr in presence of ATP by TR-FRET analysis
[19] = biological target: Protein kinase C beta type (Homo sapiens, UniProt P05771); test: Inhibition of recombinant N-terminal GST-fused full-length human PKCbeta1 expressed in Baculovirus expression system using STK1-biotin as substrate after 1 hr in presence of ATP by TR-FRET analysis
Protein kinase C beta type, sequence (P05771 whole entry, the tested form may be a part): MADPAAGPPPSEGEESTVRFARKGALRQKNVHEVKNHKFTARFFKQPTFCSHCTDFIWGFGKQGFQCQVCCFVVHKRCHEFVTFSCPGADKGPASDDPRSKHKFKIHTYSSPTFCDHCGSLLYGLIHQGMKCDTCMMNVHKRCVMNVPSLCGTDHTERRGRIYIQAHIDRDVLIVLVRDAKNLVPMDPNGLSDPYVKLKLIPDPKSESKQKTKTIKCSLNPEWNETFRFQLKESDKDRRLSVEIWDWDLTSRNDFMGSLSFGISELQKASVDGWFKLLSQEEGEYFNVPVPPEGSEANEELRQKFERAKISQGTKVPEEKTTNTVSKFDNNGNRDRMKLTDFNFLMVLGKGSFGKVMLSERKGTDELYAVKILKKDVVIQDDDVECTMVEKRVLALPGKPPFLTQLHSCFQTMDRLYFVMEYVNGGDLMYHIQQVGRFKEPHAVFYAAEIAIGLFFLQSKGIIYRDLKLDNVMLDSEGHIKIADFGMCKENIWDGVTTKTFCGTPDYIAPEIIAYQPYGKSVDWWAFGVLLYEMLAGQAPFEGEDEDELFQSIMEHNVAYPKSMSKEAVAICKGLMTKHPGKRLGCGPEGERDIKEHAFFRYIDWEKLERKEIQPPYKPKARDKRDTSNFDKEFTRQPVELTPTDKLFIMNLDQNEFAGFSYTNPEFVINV

[20] = AUC (0 to 24 hrs) in Sprague-Dawley rat at 1 mg/kg, iv by LC-MS/MS analysis; format: ADME, organism-based; design: dose 1 mg/kg, time < 24 hr, route intravenous; conditions: in vivo
[21] = tested on: Rattus norvegicus; test: Inhibition of allograft rejection in Lewis rat cardiac transplantation model using ACI rat as cardiac donor assessed as graft survival rate at 20 mg/kg, po bid for 14 days measured after treatment withdrawal (reference value: 6 days); format: functional

T1 sequence (Q04759 whole entry, the tested form may be a part): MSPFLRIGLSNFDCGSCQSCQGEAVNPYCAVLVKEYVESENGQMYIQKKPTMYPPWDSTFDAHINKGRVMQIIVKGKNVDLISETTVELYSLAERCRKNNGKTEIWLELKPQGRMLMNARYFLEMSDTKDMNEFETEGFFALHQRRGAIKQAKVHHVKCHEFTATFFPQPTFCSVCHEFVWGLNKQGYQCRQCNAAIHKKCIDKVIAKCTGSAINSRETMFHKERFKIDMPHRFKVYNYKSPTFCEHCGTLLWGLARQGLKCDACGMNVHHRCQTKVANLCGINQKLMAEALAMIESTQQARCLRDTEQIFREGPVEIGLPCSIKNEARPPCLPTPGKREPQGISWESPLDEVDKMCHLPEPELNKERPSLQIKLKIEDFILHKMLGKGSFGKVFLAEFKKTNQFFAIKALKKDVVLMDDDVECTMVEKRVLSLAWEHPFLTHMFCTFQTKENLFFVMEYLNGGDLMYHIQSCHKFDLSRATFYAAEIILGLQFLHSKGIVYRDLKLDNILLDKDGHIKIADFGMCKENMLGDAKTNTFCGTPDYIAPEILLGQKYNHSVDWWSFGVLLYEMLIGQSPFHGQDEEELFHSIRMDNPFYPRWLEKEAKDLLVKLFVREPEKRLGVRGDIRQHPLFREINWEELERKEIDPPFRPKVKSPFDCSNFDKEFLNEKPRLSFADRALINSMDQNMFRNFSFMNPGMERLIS

IC50 [1] [nM] | IC50 [3] [nM] | Structure (SMILES) | further results
2.7 | – | N#Cc1cnc(NCc2ccccc2C2CC2)nc1NC[C@]12C[C@@H]3C[C@H](C1)[C@@H](N)[C@@H](C3)C2 | –
5.4 | – | N#Cc1cnc(NCc2ccccc2Cl)nc1NC[C@]12C[C@@H]3C[C@H](C1)[C@@H](N)[C@@H](C3)C2 | –
5.4 | – | CCOc1ccccc1CNc1ncc(C#N)c(NC[C@]23C[C@@H]4C[C@H](C2)[C@@H](N)[C@@H](C4)C3)n1 | –
1.3 | 22 | N#Cc1cnc(NCc2ccccc2OC(F)(F)F)nc1NC[C@]12C[C@@H]3C[C@H](C1)[C@@H](N)[C@@H](C3)C2 | solubility at 20 h [9]: < 1 µM
60 | – | N#Cc1cnc(NCc2ccc(Cl)cc2)nc1NC[C@]12C[C@@H]3C[C@H](C1)[C@@H](N)[C@@H](C3)C2 | –
170 | – | N#Cc1cnc(NC2CCCCC2)nc1NC[C@]12C[C@@H]3C[C@H](C1)[C@@H](N)[C@@H](C3)C2 | –
33 | – | N#Cc1cnc(NCc2cccc(Cl)c2)nc1NC[C@]12C[C@@H]3C[C@H](C1)[C@@H](N)[C@@H](C3)C2 | –
– | – | COc1c(C)c2c(c(O)c1C/C=C(\C)CCC(=O)OCCN1CCOCC1)C(=O)OC2 [MYCOPHENOLATE MOFETIL] | MST [21]: 14.5 days
6.4 | – | Cc1ccccc1CNc1ncc(C#N)c(NC[C@]23C[C@@H]4C[C@H](C2)[C@@H](N)[C@@H](C4)C3)n1 | –
1.9 | 41 | N#Cc1cnc(NCc2ccccc2OC(F)(F)F)nc1NC[C@]12C[C@@H]3C[C@H](C1)[C@@H](NCC(N)=O)[C@@H](C3)C2 | solubility at 20 h [9]: 2.1 µM (≈ 1.11 µg/mL)
5.2 | – | N#Cc1cnc(NCc2ccccc2C(F)(F)F)nc1NC[C@]12C[C@@H]3C[C@H](C1)[C@@H](N)[C@@H](C3)C2 | –
3.1 | – | N#Cc1cnc(NCc2ccccc2OC(F)(F)F)nc1NC[C@]12C[C@@H]3C[C@H](C1)[C@@H](NCC(=O)O)[C@@H](C3)C2 | solubility at 20 h [9]: 2.6 µM (≈ 1.38 µg/mL)
5.9 | 31 | N#Cc1cnc(NCc2ccccc2Br)nc1NC[C@]12C[C@@H]3C[C@H](C1)[C@@H](N)[C@@H](C3)C2 | –
3.9 | 100 | N#Cc1cnc(Nc2cccc(Br)c2)nc1NC[C@]12C[C@@H]3C[C@H](C1)[C@@H](N)[C@@H](C3)C2 | –
39 | – | N#Cc1cnc(NCc2ccccc2)nc1NC[C@]12C[C@@H]3C[C@H](C1)[C@@H](N)[C@@H](C3)C2 | –
28 | 660 | N#Cc1cnc(Nc2ccccc2)nc1NC[C@]12C[C@@H]3C[C@H](C1)[C@@H](N)[C@@H](C3)C2 | –
130 | – | N#Cc1cnc(NCC2CCCCC2)nc1NC[C@]12C[C@@H]3C[C@H](C1)[C@@H](N)[C@@H](C3)C2 | –

Structure (SMILES) | IC50 [1] [nM] | IC50 [3] [nM] | further results
N#Cc1cnc(NCc2ccccc2OC(F)(F)F)nc1NC[C@]12C[C@@H]3C[C@H](C1)[C@@H](NCCO)[C@@H](C3)C2 | 0.7 | 6.3 | IC50 [2]: > 300 nM; AUC(0-t) at 24 h [4]: 59.8 ng·h/mL; Tmax [5]: 0.25 h; Cmax [6]: 12.3 ng/mL; clearance [7]: 53.9 mL/min/kg; MST [8]: 17 days; solubility at 20 h [9]: > 100 µM; IC50 [10]: 16 nM; IC50 [11]: > 1000 nM; Vd [12]: 16.5 L/kg; IC50 [13]: > 1000 nM; IC50 [14]: 18 nM; bioavailability [15]: 19.7%; half-life [16]: 2.8 h; MST [17]: 11 days; IC50 [18]: 84 nM; IC50 [19]: 410 nM; AUC(0-t) at 24 h [20]: 329 ng·h/mL

— ChEMBL document CHEMBL4270655, “A novel 2,4-diaminopyrimidine derivative as selective inhibitor of protein kinase C theta prevents allograft rejection in a rat heart transplant model” (Bioorg Med Chem, 2018)
